One series concerns the target T1, hH1 sodium channel (Homo sapiens, UniProt Q14524).
T1 construct: expressed in transfected cells
The series can be described thus: Inactivated state inhibition of hH1 sodium channel current (prepulse protocol). Format: cell-based.

Series [1] addresses human heart sodium channel (hH1) (Homo sapiens, UniProt Q14524). It counts as cell-based.
Series [2] relates to isolated rabbit Purkinje fibers. Conditions: 100 μM lidocaine, 300 nM dofetilide.

This note sets out measurements from patent US20090270478A1, “ION CHANNEL MODULATING ACTIVITY II” (CARDIOME PHARMA CORP., priority 2000, published 2009).

human heart sodium channel (hH1), sequence (Q14524 whole entry, looked up): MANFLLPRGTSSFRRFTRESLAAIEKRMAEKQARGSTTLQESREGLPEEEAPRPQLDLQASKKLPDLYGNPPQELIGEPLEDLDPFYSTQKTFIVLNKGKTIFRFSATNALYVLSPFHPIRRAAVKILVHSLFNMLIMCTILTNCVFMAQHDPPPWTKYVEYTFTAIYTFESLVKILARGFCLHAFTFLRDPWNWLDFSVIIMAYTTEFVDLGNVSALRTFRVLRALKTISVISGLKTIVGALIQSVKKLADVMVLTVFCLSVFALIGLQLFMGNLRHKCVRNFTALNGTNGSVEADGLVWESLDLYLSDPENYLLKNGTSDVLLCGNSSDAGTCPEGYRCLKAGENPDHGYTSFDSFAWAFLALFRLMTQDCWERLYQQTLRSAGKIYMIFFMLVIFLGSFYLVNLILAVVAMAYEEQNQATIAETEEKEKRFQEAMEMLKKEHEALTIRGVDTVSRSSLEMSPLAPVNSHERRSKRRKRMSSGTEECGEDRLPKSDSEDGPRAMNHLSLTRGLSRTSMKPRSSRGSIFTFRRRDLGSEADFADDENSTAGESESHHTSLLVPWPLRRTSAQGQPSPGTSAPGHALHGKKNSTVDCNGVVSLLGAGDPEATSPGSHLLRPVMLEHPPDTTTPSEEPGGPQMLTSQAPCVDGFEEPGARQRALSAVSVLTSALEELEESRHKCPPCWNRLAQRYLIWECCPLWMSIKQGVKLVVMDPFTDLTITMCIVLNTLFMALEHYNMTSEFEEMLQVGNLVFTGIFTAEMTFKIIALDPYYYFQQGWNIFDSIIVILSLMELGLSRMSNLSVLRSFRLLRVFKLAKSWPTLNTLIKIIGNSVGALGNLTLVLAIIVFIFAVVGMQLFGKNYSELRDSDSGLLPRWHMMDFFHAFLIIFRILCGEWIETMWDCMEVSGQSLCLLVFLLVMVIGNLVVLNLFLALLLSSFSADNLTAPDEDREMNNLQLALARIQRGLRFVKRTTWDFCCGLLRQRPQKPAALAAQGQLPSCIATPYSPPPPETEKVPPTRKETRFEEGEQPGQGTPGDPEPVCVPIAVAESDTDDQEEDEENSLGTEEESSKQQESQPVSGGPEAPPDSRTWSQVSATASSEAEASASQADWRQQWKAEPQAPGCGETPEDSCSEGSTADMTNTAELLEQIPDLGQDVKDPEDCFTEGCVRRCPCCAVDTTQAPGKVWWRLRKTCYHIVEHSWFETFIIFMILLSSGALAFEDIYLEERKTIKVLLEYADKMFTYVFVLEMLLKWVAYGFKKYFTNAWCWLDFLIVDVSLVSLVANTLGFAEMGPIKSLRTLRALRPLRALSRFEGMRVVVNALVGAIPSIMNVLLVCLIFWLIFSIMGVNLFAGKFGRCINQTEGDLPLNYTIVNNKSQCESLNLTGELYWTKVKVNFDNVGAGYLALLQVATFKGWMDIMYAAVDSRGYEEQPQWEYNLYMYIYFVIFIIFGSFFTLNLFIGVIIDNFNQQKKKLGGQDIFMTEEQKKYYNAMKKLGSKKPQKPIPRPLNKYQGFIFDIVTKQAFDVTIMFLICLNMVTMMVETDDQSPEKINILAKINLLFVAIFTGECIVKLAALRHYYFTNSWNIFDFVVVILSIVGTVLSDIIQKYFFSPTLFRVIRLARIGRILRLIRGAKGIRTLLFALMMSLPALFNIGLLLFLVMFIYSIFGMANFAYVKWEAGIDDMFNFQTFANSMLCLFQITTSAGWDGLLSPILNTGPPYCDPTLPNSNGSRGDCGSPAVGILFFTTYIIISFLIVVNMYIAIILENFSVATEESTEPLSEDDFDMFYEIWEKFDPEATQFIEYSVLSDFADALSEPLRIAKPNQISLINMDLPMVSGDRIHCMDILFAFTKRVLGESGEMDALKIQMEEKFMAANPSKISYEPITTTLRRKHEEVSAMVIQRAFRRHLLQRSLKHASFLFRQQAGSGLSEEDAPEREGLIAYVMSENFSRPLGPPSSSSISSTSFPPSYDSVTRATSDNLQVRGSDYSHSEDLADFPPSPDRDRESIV
T1 sequence (Q14524 whole entry): as the sequence (Q14524 whole entry, looked up) above

As to `CCN(CC)CC(=O)Nc1c(C)cccc1C` [lidocaine], on hH1 sodium channel, the “inhibition of hH1 with longer prepulses (inactivated state inhibition)” value is listed as “produced enhanced inhibition when prepulses of longer duration were applied”. In addition, in series [1], the “block of early TTX-sensitive sodium current, Iearly(TTX)” value turned out to be 41±2.7%; the “block of late TTX-sensitive sodium current, Ilate(TTX)” value is listed as 73±2.8%; the “block of sustained TTX-sensitive sodium current, Isus(TTX)” value was 70±2.5%. Besides, the “termination of dofetilide-induced EADs” value in series [2] is on record as “terminated dofetilide-induced (300 nM) EADs”.
